Experimental data reported in patent publication US8263369B2, “Compound ceramidastin, method for producing the same, and use of the same” (Microbial Chemistry Research Foundation, priority 2008, dated 2012).

Experiments:
[1] = target: T1, neutral/alkaline ceramidase (Pseudomonas aeruginosa, UniProt Q9I596); assay: Neutral/alkaline ceramidase activity inhibitory test; assay type: biochemical; conditions: enzyme liquid from Pseudomonas aeruginosa culture; C12-NBD Ceramide substrate; pH 8.5; 37° C., 2.5 hours; TLC fluorescence; read-out: neutral/alkaline ceramidase inhibitory activity in terms of IC50 (converted)
T1 construct: the culture liquid was sterilized through filtration; endogenous in cells; host or cells: Pseudomonas aeruginosa (human clinical isolate), sterile-filtered culture supernatant, not purified
Experimental: A seed medium used was prepared as follows. Specifically, 3 g of Nissui Trypto-Soya Broth (product of Nissui Seiyaku) was dissolved in 100 mL of deionized water, and the resultant solution was dispensed into test tubes so that each test tube contained 3 mL of the solution, followed by high-pressure sterilization. Then, Pseudomonas aeruginosa (human clinical isolate) was inoculated into the seed medium in an amount of 2% by volume, and seed culturing was performed in a water bath at 37° C. and 100 rpm for 3 hours.
A synthetic medium for main culturing was prepared as follows. […]
Neutral/alkaline ceramidase activity was measured according to the method used by Okino et al. (J. Biol. Chem. 273, 14368-14373, 1998) with minor modifications. […]
The above solution (20 μL) was spotted onto a TLC plate (MERCK 25 TLC plates 20 cm×20 cm Silica gel 60 F254) and developed (chloroform:methanol ammonia (25%)=90:20:0.5, by volume). Subsequently, Image Reader FLA 5000 (product of FUJIFILM Corporation) was used to measure the fluorescence derived from the substrate, and Science Lab 2001 ImageGauge (product of FUJIFILM Corporation) was used to calculate the inhibitory rate of substrate decomposition.

[2] = system: NC/Nga mice; assay: Therapeutic effects on atopic dermatitis-like model mice (mast cell count in skin); assay type: in vivo
Text: Atopic dermatitis-like model mice were used to test ceramidastin for the therapeutic effects on atopic dermatitis. Specifically, the above-obtained enzyme liquid was applied onto the mice to examine the aggravation degree of corneal layer of epidermis and inflammation. In addition, the enzyme liquid and ceramidastin were applied thereonto to examine the effects on the skin brought by inhibiting neutral/alkaline ceramidase activity.
The atopic dermatitis-like model mice used were 6-week-old NC/Nga female mice (product of Charles River). The above NC/Nga mice are used as an atopic dermatitis model (Hiroi et al. Jpn. J. Pharmacol. 76, 175-183, 1998) and have an increased number of mast cells in the skin tissue.
Hair was removed in advance from the 6-week-old NC/Nga female mice under anesthesia (six mice for each group). Subsequently, absorbent cotton impregnated with acetone-ether (1:1) was pressed for 15 sec against them under anesthesia by nembutal. […]
The procedure of the above defatting and applications of ceramidase and ceramidastin was repeated 47 times in total so that it was performed twice in the morning and evening for 5 days a week. […] The thus-formed tissue pieces were stained with toluidine blue, and the number of mast cells in the tissue was counted under a microscope.

T1 sequence (Q9I596 25-670): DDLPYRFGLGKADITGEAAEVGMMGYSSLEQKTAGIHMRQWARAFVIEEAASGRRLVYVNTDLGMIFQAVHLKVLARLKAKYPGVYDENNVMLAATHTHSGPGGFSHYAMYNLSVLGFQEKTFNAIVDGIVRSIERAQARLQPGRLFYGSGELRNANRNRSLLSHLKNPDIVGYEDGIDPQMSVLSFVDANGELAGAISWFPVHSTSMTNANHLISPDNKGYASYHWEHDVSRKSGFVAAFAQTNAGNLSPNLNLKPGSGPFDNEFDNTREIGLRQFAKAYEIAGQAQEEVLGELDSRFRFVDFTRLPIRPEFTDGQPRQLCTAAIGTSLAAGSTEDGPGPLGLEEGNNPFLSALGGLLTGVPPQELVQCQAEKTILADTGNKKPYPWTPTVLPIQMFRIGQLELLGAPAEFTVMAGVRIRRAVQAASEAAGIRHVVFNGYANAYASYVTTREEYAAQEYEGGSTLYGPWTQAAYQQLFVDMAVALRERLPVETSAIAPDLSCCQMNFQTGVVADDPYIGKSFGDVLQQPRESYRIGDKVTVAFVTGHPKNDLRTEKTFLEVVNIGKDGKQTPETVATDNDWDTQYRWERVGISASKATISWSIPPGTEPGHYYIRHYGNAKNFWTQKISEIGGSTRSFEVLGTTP

CCCCCCC(O)C1C2=C(CC(C(O)C(O)C/C=C/CO)CC3=C(C(=O)OC3=O)C1O)C(=O)OC2=O (stereo not drawn) [ceramidastin]
IC50 [1]: 12 µM
number of mast cells in mouse skin pieces ([2]; NC/Nga female mice, defatting + ceramidase + 0.2 mL ceramidastin 1 mg/mL on skin, 47 times, toluidine blue, ceramidase-applied 22.6±8.5, untreated 13.04±4.38): 15.5±5.2
effect on increase in the number of mast cells ([2]; ceramidase+ceramidastin-applied skin pieces vs ceramidase-applied skin pieces, NC/Nga mice): significantly inhibited
